Experimental data: US20260250318A1, “COMPOSITIONS AND METHODS FOR CROSSING THE BLOOD BRAIN BARRIER” (VOYAGER THERAPEUTICS, INC., priority 2022, published 2026)

Tests used:
brain = assay: Matured TTM-001 and TTM-002 variants, NGS enrichment in mouse brain; type: in vivo, mice; conditions: relative to AAV9 control
[1] = system: brains, heart, liver, muscle, and DRG of the NHPs; assay: Maturation of TTM-001 and TTM-002 capsids, NGS enrichment in NHP tissues; type: in vivo; conditions: relative to AAV9 control
In short: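 Variants carry mutations within and flanking the loop IV peptide insert: positions 450–466 were triplet-randomized, while positions 449–466 received low-frequency point mutations. The combined pool went into two NHPs, and each peptide was scored by NGS enrichment ratio against AAV9.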

[2] = NGS fold-enrichment, brain of mice
[3] = NGS fold-enrichment, mouse brain
[4] = NGS fold-enrichment of RNA, NHP brain
[5] = NGS fold-enrichment, DRG of NHPs
[6] = NGS fold-enrichment, NHP liver DNA
[7] = NGS fold-enrichment, NHP liver RNA
[8] = NGS fold-enrichment, NHP muscle
[9] = NGS fold-enrichment, RNA, brain of NHPs
[10] = NGS fold-enrichment, heart of NHPs
[11] = NGS fold-enrichment, liver DNA of NHPs
[12] = NGS fold-enrichment, liver RNA of NHPs
[13] = NGS fold-enrichment, muscle of NHPs
[14] = NGS fold-enrichment of matured AAV capsid variants, NHP brain, RNA

| Sequence | Fold Enrichment relative to AAV9, Brain (Mouse) (brain; [2]) [fold] | Fold Enrichment relative to AAV9, Brain (Mouse) (brain; [3]) [fold] | Fold Enrichment relative to AAV9, Brain (NHP) [1, 4] [fold] | Fold Enrichment relative to AAV9, DRG (NHP) [1, 5] [fold] | Fold Enrichment relative to AAV9, DRG (NHP) ([1]; NGS fold-enrichment, NHP DRG) [fold] | Fold Enrichment relative to AAV9, Heart (NHP) ([1]; NGS fold-enrichment, NHP heart) [fold] | Fold Enrichment relative to AAV9, Liver DNA (NHP) [1, 6] [fold] | Fold Enrichment relative to AAV9, Liver RNA (NHP) [1, 7] [fold] | Fold Enrichment relative to AAV9, Muscle (NHP) [1, 8] [fold] | Fold Enrichment relative to AAV9, Brain (NHP) [1, 9] [fold] | Fold Enrichment relative to AAV9, Heart (NHP) [1, 10] [fold] | Fold Enrichment relative to AAV9, Liver DNA (NHP) [1, 11] [fold] | Fold Enrichment relative to AAV9, Liver RNA (NHP) [1, 12] [fold] | Fold Enrichment relative to AAV9, Muscle (NHP) [1, 13] [fold] | other results |
| --- | --- | --- | --- | --- | --- | --- | --- | --- | --- | --- | --- | --- | --- | --- | --- |
| KTEITSGSPHSKAQNQQT | 76.686 | 76.686 | 79.620 | 0.000 | 0.000 | 0.163 | 0.074 | 0.332 | 0.000 | 79.620 | 0.163 | 0.074 | 0.332 | 0.000 |  |
| KTEKASGSPHSKAQNQQT | 90.390 | 90.390 | 80.285 | 0.000 | 0.000 | 0.041 | 0.261 | 0.000 | 0.000 | 80.285 | 0.041 | 0.261 | 0.000 | 0.000 |  |
| KTEKGSGSPHSKAQNQQT | 84.653 | 84.653 | 105.614 | 0.053 | 0.053 | 0.031 | 0.169 | 0.586 | 0.000 | 105.614 | 0.031 | 0.169 | 0.586 | 0.000 |  |
| KTEKISGSPHSKAQNQQT | 102.978 | 102.978 | 116.603 | 0.000 | 0.000 | 0.000 | 0.426 | 0.000 | 0.000 | 116.603 | 0.000 | 0.426 | 0.000 | 0.000 |  |
| KTEKMSGSPHSKAQNQQT | 109.161 | 109.161 | 169.461 | 0.523 | 0.523 | 0.000 | 0.158 | 0.000 | 0.000 | 169.461 | 0.000 | 0.158 | 0.000 | 0.000 |  |
| KTEKNSGSPHSKAQNQQT | 74.393 |  |  | 0.000 |  |  |  |  |  | 73.347 | 0.000 | 0.021 | 0.159 | 0.044 |  |
| KTEKSSGSPHSKAQNQQT | 100.177 | 100.177 | 107.470 | 0.000 | 0.000 | 0.016 | 0.179 | 0.977 | 0.014 | 107.470 | 0.016 | 0.179 | 0.977 | 0.014 |  |
| KTEKTSGSPHSKAQNQQT | 101.467 | 101.467 | 120.337 | 0.000 | 0.000 | 0.355 | 0.119 | 0.000 | 0.000 | 120.337 | 0.355 | 0.119 | 0.000 | 0.000 |  |
| KTEKVSGSPHSKAQNQQT | 112.185 | 112.185 | 84.558 | 0.000 | 0.000 | 0.022 | 0.424 | 0.873 | 0.000 | 84.558 | 0.022 | 0.424 | 0.873 | 0.000 |  |
| KTELGSGSPHSKAQNQQT |  |  |  |  |  |  |  |  |  |  |  |  |  |  | Fold Enrichment relative to AAV9, Brain (Mouse) (brain; mouse brain): 87.314 fold; Fold Enrichment relative to AAV9, Brain (NHP) [1, 14]: 52.232 fold; Fold Enrichment relative to AAV9, DRG (NHP) ([1]; NHP DRG): 0.000 fold; Fold Enrichment relative to AAV9, Heart (NHP) ([1]; NHP heart): 0.007 fold; Fold Enrichment relative to AAV9, Liver DNA (NHP) ([1]; NHP liver, DNA): 0.088 fold; Fold Enrichment relative to AAV9, Liver RNA (NHP) ([1]; NHP liver, RNA): 0.532 fold; Fold Enrichment relative to AAV9, Muscle (NHP) ([1]; NHP muscle): 0.006 fold |
| KTELHSGSPHSKAQNQQT | 53.124 |  |  | 0.000 |  |  |  |  |  | 74.620 | 0.000 | 0.089 | 0.021 | 0.000 |  |
| KTELRHDSPHKSGQNQQT |  | 6.588 | 98.098 |  | 0.000 | 0.019 | 0.007 | 0.000 | 0.000 |  |  |  |  |  |  |
| KTELRSGSPHSKAQNQQT |  |  |  |  |  |  |  |  |  |  |  |  |  |  | Fold Enrichment relative to AAV9, Brain (Mouse) (brain; mouse brain): 57.814 fold; Fold Enrichment relative to AAV9, Brain (NHP) [1, 14]: 54.289 fold; Fold Enrichment relative to AAV9, DRG (NHP) ([1]; NHP DRG): 0.000 fold; Fold Enrichment relative to AAV9, Heart (NHP) ([1]; NHP heart): 0.007 fold; Fold Enrichment relative to AAV9, Liver DNA (NHP) ([1]; NHP liver, DNA): 0.239 fold; Fold Enrichment relative to AAV9, Liver RNA (NHP) ([1]; NHP liver, RNA): 0.790 fold; Fold Enrichment relative to AAV9, Muscle (NHP) ([1]; NHP muscle): 0.040 fold |
| KTELTSGSPHSKAQNQQT | 100.311 |  |  | 0.000 |  |  |  |  |  | 74.548 | 0.000 | 0.421 | 0.537 | 0.000 |  |
| KTELWHDSPHKSGQNQQT |  | 9.915 | 85.323 |  | 0.057 | 0.020 | 0.243 | 0.000 | 0.000 |  |  |  |  |  |  |
| KTEMKHDSPHKSGQNQQT |  | 3.183 | 240.075 |  | 0.000 | 0.000 | 0.000 | 0.000 | 0.000 |  |  |  |  |  |  |
